In US20240016924A1, “NEW ADJUVANT TO IMPROVE THE INNATE IMMUNITY” (INSTITUT NATIONAL DE LA SANTÉ ET DE LA RECHERCHE MÉDICALE, priority 2020, published 2024):

Key:
Assay type in all cases: cell-based, human
[1] = tested on: nasal RPMI cells; assay: Calcium measurement (Fura-2/AM), nasal RPMI cells; conditions: P1 125 μM vs 2511M, controls at 125 μM, n=3
Procedure: (§1) 70-80% confluent RPMI 2650 or HNEC cells in 24-well plate were loaded with […] Fura-2/AM (Molecular Probes) in basal medium without serum/growth factors for 1 hour at 37° C. Cells were washed twice with mammalian saline (Conche, Boulla et al. 2009) and measurements were performed in complete medium supplied with HEPS (10 mM) and CaCl2 (2 mM) as described add (Conche, Boulla et al. 2009). Images were acquired with an inverted fluorescence microscope (Observer Z1, Zeiss, Germany) and analyzed with MetaMorph software (Guichard, Bonilla et al. 2017) Calcium was measured every 5 seconds by video fluorescence imaging. Results were expressed as 340 nm to 380 nm fluorescence ratio and normalized to the baseline, i.e. ratio at time zero was set as 1.

[2] = tested on: primary HNECs; assay: Quantitative RT-PCR for short and long form TSLP, primary HNECs
Procedure: The expression of short and long form TSLP was quantified as described (Bjerkan, Schreurs et al. 2015, Dong, Hu et al. 2016). Briefly, total RNA was extracted using Trizol. Five hundred nanograms of RNA were treated with ezDNase Enzyme (Thermo Fisher) to remove genomic DNA, and reverse transcribed into cDNA using the kit SuperScript IV VILO Master Mix according to manufacturer instructions (Thermo Fisher). Quantitative PCR was performed using reported primers (Dong, Hu et al. 2016) and the PowerUp SYBR Green Master Mix according to manufacturer instructions (Thermo Fisher). Reactions were performed in triplicates, with glyceraldehyde-3-phosphate dehydrogenase (GAPDH) as the internal control. Amplification, data acquisition, and analysis were carried out using the LightCycler 480 Software (Roche, Mannheim, Germany). The levels of TSLP mRNA were normalized to the levels of GAPDH using the ΔCt method (Schmittgen and Livak 2008) and were presented as 2-ΔCt values.

[3] = tested on: primary HNEC cells; assay: Calcium measurement (Fura-2/AM), primary HNEC cells; conditions: P1 125 μM vs 2511M, controls at 125 μM, n=3
Procedure: as §1

[4] = tested on: CD8-depleted PBMCs cocultured with RPMI 2650 cells; assay: In vitro immunization assay with ovalbumin
Procedure: In vitro immunization assay was performed as reported (Jung, Matsumoto et al. 2007) with modifications. Briefly, 1×10^6 CD8-depleted PBMCs (Human CD8 Depletion Cocktail, StemCell Technologies, France) were cocultured for 24 hrs with RPMI 2650 cells ([…]) pre-seeded in 48 well plates for 48 hrs. Then, ovalbumin (OVA, EndoFit Ovalbumin, 10 µg/mL, Invivogen) alone, OVA together with P1 (5 μM, 25 μM, 125 μM), OVA together with P1 mutant (P1mut, 125 μM), or medium were added to in RPMI 1640 medium supplemented with Non-Essential Amino Acids (NEAA solution, Thermo Fisher), IL-4 ([…]), IL-2 (10 UI/mL) and 2-mercaptoethanol (20 μM) for 7 days.
For the detection of OVA-specific B cells, at indicated time of culture, PMBCs were surface stained with ovalbumin conjugated to fluorescein (OVA-FITC, 20 ug/mL, Thermo), PE-conjugated mouse anti-human CD20 (BD Biosciences, CA, USA), APC-conjugated goat anti-human IgA or donkey anti-human IgG (Jackson ImmunoResearch, PA, USA) as indicated by the manufacturer. Specific labeling was quantified by flow cytometry with a Guava EasyCyte flow cytometer (Merck-Millipore), and analyzed with the dedicated InCyte software, using the following strategy: CD20+ B cells were first gated and cell double positive for OVA-FITC+ and APC-conjugated anti-IgA or anti-IgG were determined as OVA-IgA or IgG-specific B-cell s.
In vitro immunization assays have been used to produce specific monoclonal antibodies using a defined antigen complemented with an adjuvant (Borrebaeck, Danielsson et al. 1987). Here, we establish a mucosal immunization model adapted from (Jung, Matsumoto et al. 2007, Yeh, Yeh et al. 2013, Wijkhuisen, Savatier et al. 2016) and using mucosal DCs based on our results presented above. OVA was selected as the model antigen. Therefore, human CD8-depleted PBMCs (n=5 independent donors) were cocultured with RPMI 2650 cells for one day to educate DCs, and prior to addition of either medium, OVA, OVA plus P1 mutant (P1mut, 125 μM) or OVA plus P1 (5 μM, 25 μM, 125 μM) for seven more days. OVA-specific B cells were quantified by flow cytometry using FITC-conjugated OVA and anti-CD2O-PE to gate on OVA-specific B cells. The Ig isotype of surface B cell receptor (BCR) was next characterized by APC-conjugated anti-human-IgA or anti-human-IgG. […] Similar results were obtained when B cells were stained with anti-CD19-PE.

For “SQNQQEKNEQELLELDKWASLWNWFNITNWLWYIK [P1]”, the “extracellular calcium influx (340/380 nm ratio)” value [1] was “induces an immediate extracellular calcium influx in a concentration-dependent manner”, the “increase of lfTSLP transcription compared to unstimulated cells” value ([2]; HNECs, p=0.004, n=6) was 5.9 fold and the “level of the sfTSLP transcript” value ([2]; upon P1 stimulation, primary HNECs) was “remains unchanged”. For the same sequence, the “extracellular calcium influx (340/380 nm ratio)” value [3] was “induces an immediate extracellular calcium influx in a concentration-dependent manner”, the “induction of OVA-specific B cells” value ([4]; OVA plus P1 at 5 μM and 25 μM, 7 days) was “very limited” and the “OVA-specific B cells (surface OVA-specific IgA and IgG)” value ([4]; OVA plus P1 at 125 μM, 7 days, n=5 donors) was “significantly enhances OVA recognition by B cells”. For the same sequence, the “induction of OVA-specific B cells” value ([4]; absence of nasal epithelial cells during the in vitro immunization) was “not able to induce OVA-specific B cells” and the “OVA-specific antibody secretion in culture supernatants” value ([4]; day 7, ELISA) was “could not be detected by ELISA”.
